Reference: patent publication US20250304549A1, “HYDROXYAMIDE DERIVATIVE AND USE THEREOF” (SICHUAN HUIYU PHARMACEUTICAL CO., LTD., priority 2022, published 2025)
Where a name gives a salt, the structure may show the parent alone.

Experiments:
NCI-H1417 cells = experiment: In vitro cell inhibition assay - H1417 cell proliferation (CellTiter-Glo); type: cell-based; conditions: Homo sapiens, NCI-H1417, H1417 small cell lung cancer cell proliferation
Procedure, shortened: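 Cells exposed to 8 compound concentrations (5-fold dilutions) in BEGM with 10% FBS for 7 days at 37° C., 5% CO2. Viable cells measured by CellTiter-Glo luminescence; inhibition versus no-inhibitor and no-cell controls, IC50 fitted.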

NCI-H526 cells = experiment: In vitro cell inhibition assay - NCI-H526 cell proliferation (CellTiter-Glo); type: cell-based; conditions: Homo sapiens, NCI-H526, 120 h, H526 small cell lung cancer cell proliferation, 5 days
Procedure, shortened: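 NCI-H526 cells plated at 1×10^3 per well overnight, then treated with 8 concentrations (5-fold dilutions) in RPMI-640 with 10% FBS for 5 days at 37° C., 5% CO2. Viable cells quantified by CellTiter-Glo luminescence; IC50 fitted from inhibition rates relative to no-inhibitor and no-cell controls.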

pan-HDAC = experiment: In vitro enzyme inhibition assay - HDAC (HDAC-Glo I/II), pan-HDAC; type: biochemical
Procedure, shortened: (§1)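 Eight compound concentrations (5-fold gradient; 1 mM DMSO stock) were assayed by HDAC-Glo I/II luminescence. IC50 was obtained by four-parameter fitting.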

LSD1 = LSD1 (Homo sapiens (Human), UniProt O60341); experiment: In vitro enzyme inhibition assay - LSD1 (HTRF); type: biochemical
NCI-H69 cells = experiment: In vitro cell inhibition assay - NCI-H69 cell proliferation (CellTiter-Glo); type: cell-based; conditions: Homo sapiens, NCI-H69, H69 small cell lung cancer cell proliferation
Procedure, shortened: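 7-day exposure at 37° C., 5% CO2 to compounds serially diluted 5-fold (8 concentrations) in RPMI-640 containing 20% FBS, after overnight attachment at 1×10^3 cells/well. Read-out: CellTiter-Glo luminescence (RLU); IC50 from curve fit of inhibition rate.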

HDAC1 = HDAC1 (Homo sapiens (Human), UniProt Q13547); experiment: In vitro enzyme inhibition assay - HDAC (HDAC-Glo I/II), HDAC1; type: biochemical; conditions: read-out: HDAC IC50 (nM) HDAC 1
Sequence of HDAC1 (Q13547 whole entry): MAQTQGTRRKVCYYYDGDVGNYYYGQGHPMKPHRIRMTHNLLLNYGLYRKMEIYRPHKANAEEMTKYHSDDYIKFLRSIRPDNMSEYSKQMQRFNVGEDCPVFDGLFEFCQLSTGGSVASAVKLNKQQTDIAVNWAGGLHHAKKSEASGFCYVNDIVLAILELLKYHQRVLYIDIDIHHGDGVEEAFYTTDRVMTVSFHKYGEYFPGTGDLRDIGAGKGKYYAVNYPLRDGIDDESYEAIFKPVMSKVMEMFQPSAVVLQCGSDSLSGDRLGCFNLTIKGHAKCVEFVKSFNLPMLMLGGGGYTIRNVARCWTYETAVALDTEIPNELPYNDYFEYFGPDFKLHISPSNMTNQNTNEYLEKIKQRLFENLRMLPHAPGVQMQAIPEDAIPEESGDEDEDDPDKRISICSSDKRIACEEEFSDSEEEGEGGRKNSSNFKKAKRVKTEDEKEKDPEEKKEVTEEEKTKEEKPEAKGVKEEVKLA
Procedure: 2. In Vitro Enzyme Inhibition Assay—HDAC
The effect of the compound on the enzymatic activity of pan-HDAC and two isoforms (HDAC1 and HDAC8) was examined using the HDAC-Glo I/II Assay and Screening System assay to assess the level of inhibition of HDAC protease activity and selectivity in each isoform. The proteins and detection reagents were from the HDAC-Glo™ I/II Assay and Screening System (Promega). A 1 mM stock solution of the compound was prepared in DMSO and diluted in a 5-fold gradient to create a series of 8 concentrations, and a specific volume of the highest concentration was diluted 25 times with HDAC Buffer to obtain 4× working solution of the compound. […] The 384-well plate was then read on a multifunctional microplate reader, with the Luminescence channel selected to record Luminescence values (RLU). The inhibition rate was calculated using the following formula: […]
Note: ‘Negative’ refers to the group without the inhibitor; ‘Blank’ refers to the group without the enzyme.
The IC50 value was calculated by fitting the inhibition rate by GraphPad Prism software, employing log (inhibitor) vs. response-Variable Slope (four parameters) model.

HDAC8 = HDAC8 (Homo sapiens (Human), UniProt Q9BY41); experiment: In vitro enzyme inhibition assay - HDAC (HDAC-Glo I/II), HDAC8; type: biochemical; conditions: read-out: HDAC IC50 (nM) HDAC 8
Sequence of HDAC8 (Q9BY41 whole entry): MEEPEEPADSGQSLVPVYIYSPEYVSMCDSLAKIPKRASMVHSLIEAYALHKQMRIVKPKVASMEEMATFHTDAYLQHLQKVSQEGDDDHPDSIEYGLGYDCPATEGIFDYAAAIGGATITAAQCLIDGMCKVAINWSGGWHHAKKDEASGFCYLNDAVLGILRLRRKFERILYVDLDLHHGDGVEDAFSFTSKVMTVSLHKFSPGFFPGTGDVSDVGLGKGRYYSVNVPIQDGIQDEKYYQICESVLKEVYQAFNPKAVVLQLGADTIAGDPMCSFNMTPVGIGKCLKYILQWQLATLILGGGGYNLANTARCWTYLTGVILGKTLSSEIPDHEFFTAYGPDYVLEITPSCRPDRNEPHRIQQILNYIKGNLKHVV
Procedure, shortened: as §1

CC(C)(O)COc1ccc(-c2cnc(N3CCC(NCc4cnc(/C=C/C(=O)NO)nc4)CC3)c(C#N)c2-c2ccc(C#N)c(F)c2)cc1O [Example 187, (E)-3-(5-(((1-(3-Cyano-4-(4-cyano-3-fluorophenyl)-5-(3-hydroxy-4-(2-hydroxy-2-methylpropoxy)phenyl)pyridin-2-yl)piperidin-4-yl)amino)methyl)pyrimidin-2-yl)-N-hydroxyacrylamide formate]
IC50 (NCI-H1417 cells): 4.89 nM | IC50 (NCI-H526 cells): 20.9 nM | IC50 (pan-HDAC): 3.71 nM | IC50 (LSD1): 4.11 nM | IC50 (NCI-H69 cells): 14.8 nM | IC50 (HDAC1): 1.98 nM | IC50 (HDAC8): 15.5 nM

CC(C)(O)COc1ccc(-c2cnc(N3CCC(NCc4ccc(CCC(=O)NO)cc4)CC3)c(C#N)c2-c2ccc(C#N)c(F)c2)cc1O [Example 188, 3-(4-(((1-(3-Cyano-4-(4-cyano-3-fluorophenyl)-5-(3-hydroxy-4-(2-hydroxy-2-methylpropoxy)phenyl)pyridin-2-yl)piperidin-4-yl)amino)methyl)phenyl)-N-hydroxypropanamide formate]
IC50 (NCI-H1417 cells): 1.74 nM | IC50 (NCI-H526 cells): 80.4 nM | IC50 (pan-HDAC): 5.07 nM | IC50 (LSD1): 0.3 nM | IC50 (NCI-H69 cells): 29.7 nM | IC50 (HDAC1): 3.06 nM | IC50 (HDAC8): 198 nM

CC(C)(O)COc1ccc(-c2cnc(N3CCC(NCc4ccc(/C=C/C(=O)NO)c(C#N)c4)CC3)c(C#N)c2-c2ccc(C#N)c(F)c2)cc1O [Example 189, (E)-3-(2-Cyano-4-((1-(3-cyano-4-(4-cyano-3-fluorophenyl)-5-(3-hydroxy-4-(2-hydroxy-2-methylpropoxy)phenyl)pyridin-2-yl)piperidin-4-yl)amino)methyl) phenyl)-N-hydroxyacrylamide formate]
IC50 (NCI-H1417 cells): 6.31 nM | IC50 (NCI-H526 cells): 27.8 nM | IC50 (pan-HDAC): 7.8 nM | IC50 (LSD1): 4.11 nM | IC50 (NCI-H69 cells): 39.2 nM | IC50 (HDAC1): 13.4 nM | IC50 (HDAC8): 130 nM

COc1ccc(-c2cnc(N3CCC(NCc4ccc(CCC(=O)NO)nc4)CC3)c(C#N)c2-c2ccc(C#N)c(F)c2)cc1O [Example 191, 3-(5-(((1-(3-Cyano-4-(4-cyano-3-fluorophenyl)-5-(3-hydroxy-4-methoxyphenyl)pyridin-2-yl)piperidin-4-yl)amino)methyl)pyridin-2-yl)-N-hydroxypropanamide formate]
IC50 (NCI-H1417 cells): 3.38 nM | IC50 (NCI-H526 cells): 25.9 nM | IC50 (pan-HDAC): 2.17 nM | IC50 (LSD1): 2.24 nM | IC50 (NCI-H69 cells): 24.6 nM | IC50 (HDAC1): 0.54 nM | IC50 (HDAC8): 37.5 nM

CC(C)(O)COc1ccc(-c2cnc(N3CCC(NCc4ccc(OCC(=O)NO)cc4)CC3)c(C#N)c2-c2ccc(C#N)c(F)c2)cc1O [Example 192, 2-(4-(((1-(3-cyano-4-(4-cyano-3-fluorophenyl)-5-(3-hydroxy-4-(2-hydroxy-2-methylpropoxy)phenyl)pyridin-2-yl)piperidin-4-yl)amino)methyl)phenoxy)-N-hydroxyacetamide formate]
IC50 (NCI-H1417 cells): 1.98 nM | IC50 (NCI-H526 cells): 82.1 nM | IC50 (pan-HDAC): 2.75 nM | IC50 (LSD1): 0.45 nM | IC50 (NCI-H69 cells): 28 nM | IC50 (HDAC1): 1.49 nM | IC50 (HDAC8): 64.9 nM

CC(C)(O)COc1ccc(-c2cnc(N3CCC(NCc4ccc(/C=C(\F)C(=O)NO)cc4)CC3)c(C#N)c2-c2ccc(C#N)c(F)c2)cc1O [Example 198, (Z)-3-(4-(((1-(3-Cyano-4-(4-cyano-3-fluorophenyl)-5-(3-hydroxy-4-(2-hydroxy-2-methylpropoxy)phenyl)pyridin-2-yl)piperidin-4-yl)amino)methyl)phenyl)-2-fluoro-N-hydroxyacrylamide formate]
IC50 (NCI-H1417 cells): 0.63 nM | IC50 (NCI-H526 cells): 21.2 nM | IC50 (pan-HDAC): 6.35 nM | IC50 (LSD1): 0.4 nM | IC50 (NCI-H69 cells): 23.7 nM | IC50 (HDAC1): 4.85 nM | IC50 (HDAC8): 67.2 nM

CC(C)(O)COc1ccc(-c2cnc(N3CCC(NCc4ccc(/C=C/C(=O)NO)nc4)CC3)c(C#N)c2-c2ccc(C#N)c(F)c2)cc1O [Example 199, (E)-3-(5-((1-(3-Cyano-4-(4-cyano-3-fluorophenyl)-5-(3-hydroxy-4-(2-hydroxy-2-methylpropoxy)phenyl)pyridin-2-yl)piperidin-4-yl)amino)methyl) pyridin-2-yl)-N-hydroxyacrylamide formate]
IC50 (NCI-H1417 cells): 2.78 nM | IC50 (NCI-H526 cells): 4.05 nM | IC50 (pan-HDAC): 2.77 nM | IC50 (LSD1): 0.54 nM | IC50 (NCI-H69 cells): 9.24 nM | IC50 (HDAC1): 1.92 nM | IC50 (HDAC8): 33.9 nM

COc1ccc(-c2cnc(N3CCC(NCc4ccc(/C=C/C(=O)NO)c(F)c4)CC3)c(C#N)c2-c2ccc(C#N)c(F)c2)cc1O [Example 200, (E)-3-(4-(((1-(3-Cyano-4-(4-cyano-3-fluorophenyl)-5-(3-hydroxy-4-methoxyphenyl)pyridin-2-yl)piperidin-4-yl)amino)methyl)-2-fluorophenyl)-N-hydroxyacrylamide formate]
IC50 (NCI-H1417 cells): 2.27 nM | IC50 (NCI-H526 cells): 4.1 nM | IC50 (pan-HDAC): 4.18 nM | IC50 (LSD1): 0.45 nM | IC50 (NCI-H69 cells): 5.16 nM | IC50 (HDAC1): 2.95 nM | IC50 (HDAC8): 127 nM

COc1ccc(-c2cnc(N3CCC(NCc4ccc(CCC(=O)NO)c(F)c4)CC3)c(C#N)c2-c2ccc(C#N)c(F)c2)cc1O [Example 201, 3-(4-((1-(3-Cyano-4-(4-cyano-3-fluorophenyl)-5-(3-hydroxy-4-methoxyphenyl)pyridin-2-yl)piperidin-4-yl)amino)methyl)-2-fluorophenyl)-N-hydroxypropanamide formate]
IC50 (NCI-H1417 cells): 3.33 nM | IC50 (NCI-H526 cells): 20.5 nM | IC50 (pan-HDAC): 7.71 nM | IC50 (LSD1): 0.22 nM | IC50 (NCI-H69 cells): 56.4 nM | IC50 (HDAC1): 4.81 nM | IC50 (HDAC8): 438 nM

COc1ccc(-c2cnc(N3CCC(NCc4cnc(/C=C/C(=O)NO)nc4)CC3)c(C)c2-c2ccc(C#N)c(F)c2)cc1O [Example 202, (E)-3-(5-(((1-(4-(4-Cyano-3-fluorophenyl)-5-(3-hydroxy-4-methoxyphenyl)-3-methylpyridin-2-yl)piperidin-4-yl)amino)methyl)pyrimidin-2-yl)-N-hydroxyacrylamide formate]
IC50 (NCI-H1417 cells): 6.15 nM | IC50 (NCI-H526 cells): 4.35 nM | IC50 (pan-HDAC): 1.85 nM | IC50 (LSD1): 74.2 nM | IC50 (NCI-H69 cells): 13.6 nM | IC50 (HDAC1): 0.88 nM | IC50 (HDAC8): 9.03 nM

N#Cc1ccc(-c2c(-c3ccc(N4CCOCC4)c(O)c3)cnc(N3CCC(NCc4ccc(/C=C/C(=O)NO)cc4)CC3)c2C#N)cc1F [Example 203, (E)-3-(4-(((1-(3-Cyano-4-(4-cyano-3-fluorophenyl)-5-(3-hydroxy-4-morpholinophenyl)pyridin-2-yl)piperidin-4-yl)amino)methyl)phenyl-N-hydroxyacrylamide formate]
IC50 (NCI-H1417 cells): 1.99 nM | IC50 (NCI-H526 cells): 12.3 nM | IC50 (pan-HDAC): 1.39 nM | IC50 (LSD1): 1.03 nM | IC50 (NCI-H69 cells): 9.38 nM | IC50 (HDAC1): 1.58 nM | IC50 (HDAC8): 25.3 nM

CC(C)(O)COc1ccc(-c2cnc(N3CCC(NCc4ccc(/C=C/C(=O)NO)cn4)CC3)c(C#N)c2-c2ccc(C#N)c(F)c2)cc1O [Example 205, (E)-3-(6-(((1-(3-Cyano-4-(4-cyano-3-fluorophenyl)-5-(3-hydroxy-4-(2-hydroxy-2-methylpropoxy)phenyl)pyridin-2-yl)piperidin-4-yl)amino)methyl)pyridin-3-yl)-N-hydroxyacrylamide formate]
IC50 (NCI-H1417 cells): 6.86 nM | IC50 (NCI-H526 cells): 39.2 nM | IC50 (pan-HDAC): 4.37 nM | IC50 (LSD1): 1.91 nM | IC50 (NCI-H69 cells): 25.2 nM | IC50 (HDAC1): 3.08 nM | IC50 (HDAC8): 100 nM

COc1ccc(-c2cnc(N3CCC(C)(NCc4cnc(/C=C/C(=O)NO)nc4)CC3)c(C#N)c2-c2ccc(C#N)c(F)c2)cc1O [Example 206, (E)-3-(5-(((1-(3-Cyano-4-(4-cyano-3-fluorophenyl)-5-(3-hydroxy-4-methoxyphenyl)pyridin-2-yl)-4-methylpiperidin-4-yl)amino)methyl)pyrimidin-2-yl)-N-hydroxyacrylamide formate]
IC50 (NCI-H1417 cells): 6.21 nM | IC50 (NCI-H526 cells): 106 nM | IC50 (pan-HDAC): 11.5 nM | IC50 (LSD1): 2.03 nM | IC50 (NCI-H69 cells): 94.7 nM | IC50 (HDAC1): 32.9 nM | IC50 (HDAC8): 32.5 nM
